The record followed here is ChEMBL document CHEMBL1201862, “PubChem BioAssay data set” (2004).

A word on the GI50: it is the concentration giving 50% growth inhibition.

Test systems include M14; SNB-75; UACC-257; 786-0; MDA-MB-231; A549; IGROV-1; SW-620; RXF 393; NCI-H23; OVCAR-3; NCI-H522; SF-268; UACC-62; HCT-15; SK-MEL-2; LOX IMVI; SK-MEL-28; RPMI-8226; DU-145.
Holding throughout (test): DTP human tumour cell line panel, 48 h

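Five concentrations, 48 hours, 96-well plates. GI50 = concentration required for 50% inhibition of growth.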 The source made the active and inactive calls. Rule as the data show it: active = GI50 up to about 1.1 µM and inactive = higher.

In the case of `COc1ccc2c(c1)OC(c1cccnc1)C(c1ccccc1)C2=O` (stereo not given), the GI50 was > 100 µM (inactive) in the assay on M14; > 100 µM (inactive) in the assay with SNB-75; > 100 µM (inactive) with UACC-257; 86.1 µM (inactive) in the assay on 786-0; > 100 µM (inactive) in the assay with MDA-MB-231; > 100 µM (inactive) with A549. For the same compound, the GI50 in the assay with IGROV-1, with SW-620, in the assay with RXF 393, with NCI-H23, in the assay with OVCAR-3 and in the assay with NCI-H522 was > 100 µM (inactive) in each case. The GI50 was 61 µM (inactive) in the assay on SF-268; > 100 µM (inactive) in the assay with UACC-62; above 100 µM with HCT-15; > 100 µM (inactive) with SK-MEL-2; > 100 µM (inactive) in the assay with LOX IMVI; > 100 µM (inactive) in the assay with SK-MEL-28. Further, the GI50 with RPMI-8226 and with DU-145 was > 100 µM (inactive) throughout.
Regarding `C/C(=N\N=C(/S)N(C)C)c1cccc[n+]1[O-]`, the GI50 in the assay with M14 was 25.9 µM (inactive); in the assay with SNB-75 it was 93.1 µM (inactive); in the assay on UACC-257, 4.38 µM (inactive); in the assay with 786-0, 28.6 µM (inactive); in the assay with MDA-MB-231 it was 2.99 µM (inactive); in the assay with A549, 59.7 µM (inactive). Besides, the GI50 is 45.3 µM (inactive) in the assay on IGROV-1; 22.3 µM (inactive) in the assay with SW-620; 65.3 µM (inactive) in the assay on RXF 393; 12.6 µM (inactive) in the assay with NCI-H23; 5.12 µM (inactive) in the assay with OVCAR-3; 4.05 µM (inactive) with NCI-H522. Besides, the GI50 in the assay on SF-268 is 38.2 µM (inactive); with UACC-62, 16.1 µM (inactive); in the assay on HCT-15 it was 1.45 µM; in the assay with SK-MEL-2 it was 38.5 µM (inactive); in the assay with LOX IMVI, 20.5 µM (inactive); in the assay with SK-MEL-28, 73.5 µM (inactive). Moreover, the GI50 is 3.62 µM (inactive) with RPMI-8226 and 59 µM (inactive) in the assay with DU-145.
As for `O=C(C[n+]1ccc2ccccc2c1)c1ccc2ccc3ccccc3c2c1`, the GI50 in the assay with M14 is 2.22 µM (inactive); with SNB-75, 5.85 µM (inactive); in the assay on UACC-257, 2.04 µM (inactive); in the assay with 786-0, 1.67 µM (inactive); with MDA-MB-231, 1.28 µM (inactive); in the assay with A549, 3.23 µM (inactive). For the same compound, the GI50 in the assay on IGROV-1 is 2.23 µM (inactive); in the assay with SW-620 it was 1.31 µM (inactive); with RXF 393, 5.02 µM (inactive); in the assay on NCI-H23 it was 2.38 µM (inactive); with OVCAR-3 it was 4.15 µM (inactive); in the assay with NCI-H522, 6.38 µM (inactive). Moreover, the GI50 in the assay with SF-268 is 4.52 µM (inactive); in the assay on UACC-62, 2.99 µM (inactive); with HCT-15 it was 5.07 µM; in the assay on SK-MEL-2 it was 4.56 µM (inactive); in the assay on LOX IMVI, 1.08 µM (active); in the assay with SK-MEL-28 it was 2.12 µM (inactive). Also, the GI50 in the assay with RPMI-8226 is 0.129 µM (active); with DU-145, 6.19 µM (inactive).
As to `CCOC(=O)c1ccc(NC(=O)O/N=C(/Cl)C(C)C)cc1`, the GI50 with M14 was 1.16 µM (inactive); in the assay with SNB-75, 12.9 µM (inactive); in the assay with UACC-257 it was 16.9 µM (inactive); with 786-0, 6.67 µM (inactive); in the assay on MDA-MB-231, 19.5 µM (inactive); in the assay with A549 it was 21.7 µM (inactive). Also, the GI50 is 19.4 µM (inactive) in the assay with IGROV-1; 2.09 µM (inactive) in the assay with SW-620; 16.3 µM (inactive) with RXF 393; 20 µM (inactive) with NCI-H23; 5.28 µM (inactive) in the assay on OVCAR-3; 2.07 µM (inactive) in the assay on NCI-H522. Besides, the GI50 in the assay on SF-268 is 16.5 µM (inactive); in the assay on UACC-62, 18.9 µM (inactive); in the assay with HCT-15 it was 8.59 µM; with SK-MEL-2 it was 15.1 µM (inactive); in the assay on LOX IMVI, 4.95 µM (inactive); in the assay with SK-MEL-28, 16.2 µM (inactive). Also, the results for the GI50 in the assay on RPMI-8226 and with DU-145 were 4.49 µM (inactive) and 28.1 µM (inactive), respectively.
In the case of `COc1ccc(N2C=Nn3c(nc4sc5c(c4c3=O)CCCC5)C2)cc1`, the GI50 in the assay with M14 is 32.5 µM (inactive); in the assay on SNB-75, 8.77 µM (inactive); in the assay on UACC-257, 56.1 µM (inactive); in the assay on 786-0, 5.77 µM (inactive); in the assay on MDA-MB-231, 6.37 µM (inactive); in the assay with A549, > 100 µM (inactive). The GI50 was > 100 µM (inactive) in the assay with IGROV-1; > 100 µM (inactive) in the assay on SW-620; 15.4 µM (inactive) in the assay on RXF 393; 26.1 µM (inactive) in the assay on NCI-H23; > 100 µM (inactive) with OVCAR-3; 16.3 µM (inactive) in the assay on NCI-H522. Besides, the GI50 in the assay with SF-268 was 19.2 µM (inactive); with UACC-62 it was 12.2 µM (inactive); in the assay on HCT-15 it was above 100 µM; in the assay with SK-MEL-2, 21.3 µM (inactive); with LOX IMVI it was 33.6 µM (inactive); in the assay on SK-MEL-28 it was > 100 µM (inactive). In addition, the GI50 in the assay on RPMI-8226 and in the assay with DU-145 was > 100 µM (inactive) throughout.
With `Nc1ncnc2c1ncn2[C@@H]1O[C@H](C(=O)O)[C@@H](O)[C@H]1O` [5'-CARBOXY ADENOSINE], the GI50 in the assay on M14, in the assay with SNB-75, with UACC-257, in the assay with 786-0, in the assay on MDA-MB-231 and in the assay with A549 was > 100 µM (inactive) each time. In addition, the GI50 in the assay on IGROV-1, with SW-620, in the assay on RXF 393, in the assay on NCI-H23, in the assay on OVCAR-3 and in the assay on NCI-H522 was > 100 µM (inactive) each time. Moreover, the GI50 was > 100 µM (inactive) in the assay on SF-268; > 100 µM (inactive) with UACC-62; above 100 µM in the assay on HCT-15; > 100 µM (inactive) with SK-MEL-2; > 100 µM (inactive) in the assay with LOX IMVI; > 100 µM (inactive) with SK-MEL-28. The GI50 in the assay with RPMI-8226 and in the assay on DU-145 was > 100 µM (inactive) each time.
As to `CCOc1cccc(-c2cc(O)c3cc4c(cc3n2)OCO4)c1`, the GI50 in the assay on M14 is 0.371 µM (active); in the assay with SNB-75 it was 0.0948 µM (active); in the assay with UACC-257, 1.95 µM (inactive); in the assay on 786-0 it was 0.197 µM (active); in the assay with MDA-MB-231, 0.243 µM (active); in the assay with A549, 0.378 µM (active). For the same compound, the GI50 is 0.548 µM (active) with IGROV-1; 0.0573 µM (active) in the assay with SW-620; 0.0953 µM (active) in the assay on RXF 393; 0.396 µM (active) in the assay with NCI-H23; 0.182 µM (active) in the assay with OVCAR-3; 0.0914 µM (active) in the assay with NCI-H522. Further, the concentration for 50% growth inhibition (GI50) is 0.466 µM (active) with SF-268; 0.043 µM (active) in the assay with UACC-62; 0.189 µM in the assay on HCT-15; 0.191 µM (active) in the assay with SK-MEL-2; 0.233 µM (active) in the assay on LOX IMVI; 1.66 µM (inactive) in the assay with SK-MEL-28. Moreover, the GI50 is 0.318 µM (active) in the assay with RPMI-8226 and 0.335 µM (active) in the assay on DU-145.
On to `COc1cc(C2c3cc4c(cc3OC(N3CCCCC3)C2C)OCO4)cc(OC)c1O` (stereo not given), for which the GI50 in the assay with M14 is 9.42 µM (inactive); with SNB-75, 2.96 µM (inactive); in the assay on UACC-257 it was 13.4 µM (inactive); in the assay with 786-0, 8.77 µM (inactive); with MDA-MB-231, 9.38 µM (inactive); with A549, 10.7 µM (inactive). Moreover, the GI50 with IGROV-1 was 9.98 µM (inactive); with SW-620 it was 5.31 µM (inactive); with RXF 393, 14.5 µM (inactive); in the assay with NCI-H23, 18.7 µM (inactive); with OVCAR-3, 6.12 µM (inactive); with NCI-H522, 3.67 µM (inactive). The GI50 in the assay on SF-268 is 13.8 µM (inactive); in the assay on UACC-62, 4.23 µM (inactive); in the assay on HCT-15, 11.6 µM; in the assay with SK-MEL-2, 7.73 µM (inactive); in the assay with LOX IMVI, 9.77 µM (inactive); in the assay with SK-MEL-28, 9.89 µM (inactive). The values for the GI50 in the assay with RPMI-8226 and in the assay on DU-145 were 9.35 µM (inactive) and 19.5 µM (inactive), respectively.
For `O=C1C=C(Br)C(=O)C12CCc1ccccc12` (stereo not given), the GI50 in the assay with M14 is 12.4 µM (inactive); in the assay with SNB-75 it was 13.6 µM (inactive); in the assay with UACC-257, 19.4 µM (inactive); in the assay on 786-0 it was 11.9 µM (inactive); in the assay with MDA-MB-231, 28.4 µM (inactive); in the assay on A549 it was 23.5 µM (inactive). Moreover, the GI50 in the assay with IGROV-1 was 20.5 µM (inactive); in the assay with SW-620, 4.4 µM (inactive); in the assay with RXF 393 it was 9.14 µM (inactive); in the assay on NCI-H23 it was 19.7 µM (inactive); with OVCAR-3, 18.5 µM (inactive); in the assay on NCI-H522, 3.36 µM (inactive). The GI50 in the assay with SF-268 is 22.3 µM (inactive); in the assay with UACC-62 it was 16.8 µM (inactive); with HCT-15 it was 7.53 µM; in the assay on SK-MEL-2 it was 19.6 µM (inactive); in the assay with LOX IMVI, 12.5 µM (inactive); with SK-MEL-28, 12.2 µM (inactive). In addition, the GI50 with RPMI-8226 was 3.05 µM (inactive); with DU-145, 16.2 µM (inactive).
Regarding `CCCCON1C[C@H](OC(C)=O)C(OC(C)=O)[C@H](OC(C)=O)C1` (stereo not given in full), the GI50 with M14, in the assay with SNB-75, with UACC-257, with 786-0, in the assay on MDA-MB-231 and with A549 was > 100 µM (inactive) in each case. The GI50 with IGROV-1 is > 100 µM (inactive); with SW-620, > 10 µM (inactive); in the assay on RXF 393, > 100 µM (inactive); in the assay on NCI-H23, > 100 µM (inactive); in the assay with OVCAR-3, > 100 µM (inactive); with NCI-H522, > 100 µM (inactive). Besides, the GI50 in the assay on SF-268 was > 100 µM (inactive); in the assay with UACC-62, > 100 µM (inactive); with HCT-15, above 100 µM; in the assay on SK-MEL-2, > 100 µM (inactive); with LOX IMVI, > 100 µM (inactive); in the assay on SK-MEL-28 it was > 100 µM (inactive). Also, the GI50 in the assay on RPMI-8226 and in the assay on DU-145 was > 100 µM (inactive) each time.
